Results as given in patent publication US11311524B2, “Pharmaceutical composition used for treatment of HTLV-1-associated myelopathy” (DAIICHI SANKYO COMPANY, LIMITED, priority 2017, dated 2022).

Columns and labels:
HAM patient-derived PBMC = assay: Autoproliferation (3H-thymidine incorporation) of HAM patient-derived PBMC without stimulation; type: cell-based, human; conditions: for GI50: Homo sapiens, PBMC of 8 HAM patients, 6 days culture, 3H-thymidine, read-out: GI50, autoproliferation activity of HAM patient-derived PBMC; for Suppression of autoproliferation activity of HAM patient-derived PBMC: no stimulation, relative to DMSO group
Protocol: PBMC taken from 8 HAM patients were suspended in culture mediums (RPMI1640 culture medium (wako) containing 10% FBS (GIBCO)), seeded in a 96-well round-bottom plate in a ratio of 1×10^5 cells per well (3 wells were used for each concentration), and compound A or compound B was added so as to provide a final concentration of 1, 10, 100 or 1000 nM. Culture was carried out at 37° C. in 5% CO2 conditions for 6 days. The DMSO treatment group and the PSL (1 μg/mL) treatment group were used as controls. Day 6 after initiation of culture, 1 μCi ^3H-thymidine was added to each well and culture was carried out at 37° C., in 5% CO2 conditions for 16 hours. Thereafter, the cultured cells were allowed to adsorb to a glass filter (Printed Filtermat A, PerkinElmer) by a cell harvester (Tomtec MH3, PerkinElmer), dried and impregnated with solid scintillator Meltilex-A (PerkinElmer). The amount of the ^3H-thymidine incorporated in the cells was measured by use of MicroBeta (WALLAC MicroBeta TriLux 1450-021) (Yamano et al., PLoS One. 2009, 4(8): e6517). Based on the average count of ^3H-thymidine in the DMSO treatment group of HAM patients' PBMC as 100%, the relative values of the groups treated with compound A, compound B and PSL (1 μg/mL) were obtained by calculation, and then, an average value of 8 HAM patient cases was obtained. A significance test was carried out in accordance with the Friedman test of GraphPad Prism6 (MDF).
The number of patients was increased to 16 and the same experiment as above was carried out.
Effect on HAM patient-derived PBMC was checked in the same manner as in the above Example except that an EZH2 inhibitor was used in place of compounds A and B.
As the EZH2 inhibitor, GSK126 (CAS No.: 1346574-57-9) and E7438 (CAS No.: 1403254-99-8) were used. The concentration for treatment was 1, 10, 100, 1000 or 10000 nM in terms of final concentration. In the experiment, PBMC samples taken from the 8 persons before the number of cases increased in the above were used.

[1] = system: HTLV-1 infected cells in HAM patient's PBMC; assay: HTLV-1 pro-viral load (infected cell rate) in HAM patient-derived PBMC by real time PCR; type: cell-based, human; conditions: PSL 1 μg/ml control, this experimental system or clinical sites
Protocol: PBMC taken from 8 HAM patients were suspended in a culture medium (RPMI1640 culture medium containing 10% FBS) and seeded in a 48-well plate in a ratio of 5×10^5 cells per well, and compound A or compound B was added so as to provide a final concentration of 1, 10, 100 or 1000 nM. The culture solution of 0.5 mL in total was cultured at 37° C. in 5% CO2 conditions for 12 days. A group treated with DMSO and a group treated with PSL (1 μg/mL) were used as controls. Day 12 after initiation of culture, the culture solution was centrifuged, and thereafter, the cell suspension was recovered from each of the cultures carried out under different conditions and centrifuged. After the supernatant was removed, the cell pellet was subjected to genomic DNA extraction. The genome DNA extracted was subjected to real time PCR to measure HTLV-1 pro-viral load (infected cell rate) (Yamano et al., Blood. 2002, 99 (1): 88-94). Based on the HTLV-1 pro-viral load in cells, which were obtained by adding DMSO to each of the HAM patient's PBMC and culturing the PBMC, as 100%, the relative value of HTLV-1 pro-viral load in a group treated with compound A, compound B or PSL was calculated, and then, an average value of 8 HAM patient cases was obtained. The significance test was carried out by using the Friedman test of GraphPad Prism6 (MDF).

**Q.** With `CCN(c1cc(-c2ccc(CN3CCOCC3)cc2)cc(C(=O)NCc2c(C)cc(C)[nH]c2=O)c1C)C1CCOCC1` [E7438, N-((4,6-Dimethyl-2-oxo-1,2-dihydropyridin-3-yl)methyl)-5-(ethyl(tetrahydro-2H-piran-4-yl)amino)-4-methyl-4′-(morpholinomethyl)-[1,1′-biphenyl]-3-carboxamide, reference compound] as the compound, how does the GI50 (HAM patient-derived PBMC) read?
**A.** The GI50 was 214 nM.

**Q.** What about the “Suppression of autoproliferation activity of HAM patient-derived PBMC” value (shortened to “Suppression”) (HAM patient-derived PBMC) of the same compound?
**A.** Its value is “suppress autoproliferation activity”.

**Q.** Which GI50 (HAM patient-derived PBMC) does the source give for `CC[C@H](C)n1cc(C)c2c(C(=O)NCc3c(C)cc(C)[nH]c3=O)cc(-c3ccc(N4CCNCC4)nc3)cc21` [GSK126, N-[(1,2-Dihydro-4,6-dimethyl-2-oxo-3-pyridinyl)methyl]-3-methyl-1-[(1S)-1-methylpropyl]-6-[6-(1-piperazinyl)-3-pyridinyl]-1H-indole-4-carboxamide, reference compound] here?
**A.** Its GI50 is 724 nM.

**Q.** And the “Suppression” value (HAM patient-derived PBMC)?
**A.** Its value is “suppress autoproliferation activity”.

**Q.** Which “Suppression” value (HAM patient-derived PBMC) does the source give for `C[C@]12C=CC(=O)C=C1CC[C@@H]1[C@@H]2[C@@H](O)C[C@@]2(C)[C@H]1CC[C@]2(O)C(=O)CO` [PSL, prednisolone, reference compound] here?
**A.** The value was “can suppress autoproliferation activity”.

**Q.** What about the “Infected cell removal activity” value [1] of the same compound?
**A.** Its value is “does not exhibit infected cell removal activity”.
